Source: patent US20200407398A1, “Short Proline-Rich Lipopeptide Potentiates Minocycline and Rifampicin Against Multidrug-and Extensively Drug-Resistant Pseudomonas Aeruginosa” (priority 2018, published 2020)
Square brackets hold non-standard residues; d marks the D form. Peptide text beside a SMILES is read from it. * marks the point of attachment. Lauroyl = CCCCCCCCCCCC(=O)*

How the values were obtained:
Test in all cases: microbe, parasite or virus in culture
[1] = test system: P. aeruginosa 100036 (MDR/XDR); settings: P. aeruginosa 100036; for MIC (agent alone): antibiotic or lipopeptide alone
Description: (§1) We evaluated the activity of SPRLPs in combination with fifteen clinically-used antibiotics against P. aeruginosa. Antibiotics tested included fluoroquinolones (moxifloxacin, ciprofloxacin and levofloxacin), aminoglycosides (gentamicin, tobramycin and amikacin), cephalosporins (ceftazidime and cefotaxime), carbapenems (meropenem and doripenem), aztreonam, rifampicin, minocycline, colistin and fosfomycin. The SPRLPs were screened initially at a fixed concentration of 8 μg/mL (5 μM) in combination with antibiotics against wild-type P. aeruginosa PAO1. We assessed potentiation by at least a four-fold absolute MIC reduction of the antibiotic, after which synergism was further validated by a conventional checkerboard assay. A fractional inhibitory concentration (FIC) index of ≤0.5, 0.5<x≤4 or >4 was interpreted as synergistic, indifferent or antagonistic interaction, respectively (31). FIC index was obtained by adding the FIC values of the antibiotic and the SPRLP adjuvant. FIC of antibiotics was calculated by dividing the MIC of the antibiotic in the presence of the adjuvant by the MIC of the antibiotic alone. Similarly, the FIC of adjuvant was calculated via dividing the MIC of the adjuvant in the presence of the antibiotic by the MIC of the adjuvant alone.
(§2) Isolates used in this study were either obtained from the American Type Culture Collection (ATCC), the Canadian National Intensive Care Unit (CAN-ICU) surveillance study (27) or the Canadian Ward Surveillance (CANWARD) study (28). Clinical isolates belonging to the CAN-ICU and CANWARD studies were recovered from patients suffering a presumed infectious disease entering or admitted in a participating medical center across Canada during the time of study. MDR P. aeruginosa strains in this study refer to those that are resistant to aminoglycosides, fluoroquinolones, cephalosporins, and carbapenems while XDR strains are those that are resistant to aminoglycosides, fluoroquinolones, cephalosporins, carbapenems, aztreonam and penicillin+β-lactamase inhibitor combination (39, 40).
(§3) Microbroth dilution susceptibility test following the Clinical and Laboratory Standards Institute (CLSI) guidelines (32) was performed to assess the in vitro antibacterial activity of SPRLPs. Overnight grown bacterial cultures were diluted in saline to achieve a 0.5 McFarland turbidity, followed by 1:50 dilution in Mueller-Hinton broth (MHB) for inoculation to a final concentration of 5×10^5 colony forming units/mL. The assay was done on a 96-well plate to which the agents of interest were 2-fold serially diluted in MHB and incubated with equal volumes of inoculum at 37° C. for 18 hours. MIC was determined as the lowest concentration to inhibit visible bacterial growth in form of turbidity, which was confirmed using EMax Plus microplate reader (Molecular Devices, USA) at a wavelength of 590 nm. The well containing MHB broth with or without bacterial cells was used as positive or negative control, respectively.
(§4) The assay was performed on a 96-well plate, to which the agents of interest was 2-fold serially diluted in working MHB. Prior to serial dilution, SPRLP was added to the working MHB media so that a fixed final concentration of 8 μg/mL (5 μM) SPRLP per well was achieved. To ensure that the assay was working, the MIC determination test of the studied antibiotic (without SPRLP) was included on the same plate. Similar MIC results between the assay comparator and an independent MIC determination test (on a different plate) ensured validity of the synergy test. Overnight grown bacterial cultures were diluted in saline to 0.5 McFarland turbidity, followed by 1:50 dilution in MHB (without SPRLP) and inoculation into each well to a final concentration of approximately 5×10^5 colony forming units/mL. Wells containing only MHB (without SPRLP) with or without bacterial cells were used as positive or negative control, respectively.

[2] = test system: P. aeruginosa 101243 (colistin-resistant, MDR/XDR)
Description: as §1, §2, §3, §4

[3] = test system: P. aeruginosa 101885 (MDR/XDR)
Description: as §1, §2, §3, §4

[4] = test system: P. aeruginosa 259-96918 (MDR/XDR); settings: P. aeruginosa 259-96918; for MIC (agent alone): antibiotic or lipopeptide alone
Description: as §1, §2, §3, §4

[5] = test system: P. aeruginosa 260-97103 (MDR/XDR)
Description: as §1, §2, §3, §4

[6] = test system: P. aeruginosa 262-101856 (MDR/XDR); settings: P. aeruginosa 262-101856; for Absolute MIC MIN: MIC of minocycline in the presence of 8 μg/mL (5 μM) lipopeptide; for MIC (agent alone): antibiotic or lipopeptide alone
Description: as §1, §2, §3, §4

[7] = test system: P. aeruginosa 264-104354 (MDR/XDR); settings: P. aeruginosa 264-104354; for MIC (agent alone): antibiotic or lipopeptide alone
Description: as §1, §2, §3, §4

[8] = test system: P. aeruginosa 91433 (colistin-resistant, MDR/XDR); settings: P. aeruginosa 91433 (colistin-resistant); for MIC (agent alone): antibiotic or lipopeptide alone
Description: as §1, §2, §3, §4

[9] = MIC of minocycline in the presence of 8 μg/mL (5 μM) lipopeptide
[10] = MIC of rifampicin in the presence of 8 μg/mL (5 μM) lipopeptide
[11] = degree of minocycline potentiation in the presence of 8 μg/mL (5 μM) lipopeptide
[12] = degree of rifampicin potentiation in the presence of 8 μg/mL (5 μM) lipopeptide
[13] = P. aeruginosa 101243 (colistin-resistant), degree of minocycline potentiation in the presence of 8 μg/mL (5 μM) lipopeptide
[14] = P. aeruginosa 101243 (colistin-resistant), degree of rifampicin potentiation in the presence of 8 μg/mL (5 μM) lipopeptide
[15] = P. aeruginosa 101885, degree of minocycline potentiation in the presence of 8 μg/mL (5 μM) lipopeptide
[16] = P. aeruginosa 101885, degree of rifampicin potentiation in the presence of 8 μg/mL (5 μM) lipopeptide
[17] = P. aeruginosa 260-97103, degree of minocycline potentiation in the presence of 8 μg/mL (5 μM) lipopeptide
[18] = P. aeruginosa 260-97103, degree of rifampicin potentiation in the presence of 8 μg/mL (5 μM) lipopeptide

In the case of `CCCCCCCCCCCC(=O)N1CCC[C@@H]1C(=O)N[C@H](CCCNC(=N)N)C(=O)N1CCC[C@@H]1C(=O)N[C@H](CCCNC(=N)N)C(=O)N1CCC[C@@H]1C(=O)N[C@H](CCCNC(=N)N)C(=O)N1CCC[C@@H]1C(N)=O` [C12-prp] (Lauroyl-[dP][dR][dP][dR][dP][dR][dP]-NH2), the “Absolute MIC MIN” value [1, 9] is reported as 8 µg/mL, the “Absolute MIC RMP” value [1, 10] is reported as 4 µg/mL and the “MIC (agent alone)” value [1] is reported as >128 µg/mL. The Potentiation [1, 11] was 2-fold, the Potentiation [1, 12] was 4-fold and the “Absolute MIC MIN” value ([2]; P. aeruginosa 101243 (colistin-resistant), MIC of minocycline in the presence of 8 μg/mL (5 μM) lipopeptide) was 2 µg/mL. The “Absolute MIC RMP” value ([2]; P. aeruginosa 101243 (colistin-resistant), MIC of rifampicin in the presence of 8 μg/mL (5 μM) lipopeptide) was 0.5 µg/mL, the “MIC (agent alone)” value ([2]; P. aeruginosa 101243 (colistin-resistant), antibiotic or lipopeptide alone) was >128 µg/mL and the Potentiation [2, 13] was 2-fold. For the same compound, the Potentiation [2, 14] was 8-fold, the “Absolute MIC MIN” value ([3]; P. aeruginosa 101885, MIC of minocycline in the presence of 8 μg/mL (5 μM) lipopeptide) was 8 µg/mL and the “Absolute MIC RMP” value ([3]; P. aeruginosa 101885, MIC of rifampicin in the presence of 8 μg/mL (5 μM) lipopeptide) was 4 µg/mL. For the same compound, the “MIC (agent alone)” value ([3]; P. aeruginosa 101885, antibiotic or lipopeptide alone) was >128 µg/mL, the Potentiation [3, 15] was 2-fold and the Potentiation [3, 16] was 4-fold. For the same compound, the “Absolute MIC MIN” value [4, 9] was 4 µg/mL, the “Absolute MIC RMP” value [4, 10] was 2 µg/mL and the “MIC (agent alone)” value [4] was >128 µg/mL. For the same compound, the Potentiation [4, 11] was 4-fold, the Potentiation [4, 12] was 8-fold and the “Absolute MIC MIN” value ([5]; P. aeruginosa 260-97103, MIC of minocycline in the presence of 8 μg/mL (5 μM) lipopeptide) was 2 µg/mL. For the same compound, the “Absolute MIC RMP” value ([5]; P. aeruginosa 260-97103, MIC of rifampicin in the presence of 8 μg/mL (5 μM) lipopeptide) was 4 µg/mL, the “MIC (agent alone)” value ([5]; P. aeruginosa 260-97103, antibiotic or lipopeptide alone) was >128 µg/mL and the Potentiation [5, 17] was 8-fold. The Potentiation [5, 18] was 4-fold, the “Absolute MIC MIN” value [6] was 16 µg/mL and the “Absolute MIC RMP” value [6, 10] was 256 µg/mL. The “MIC (agent alone)” value [6] was >128 µg/mL, the Potentiation [6, 11] was 4-fold and the Potentiation [6, 12] was 2-fold. The “Absolute MIC MIN” value [7, 9] was 4 µg/mL, the “Absolute MIC RMP” value [7, 10] was 2 µg/mL and the “MIC (agent alone)” value [7] was >128 µg/mL. For the same compound, the Potentiation [7, 11] was 8-fold, the Potentiation [7, 12] was 4-fold and the “Absolute MIC MIN” value [8, 9] was 4 µg/mL. For the same compound, the “Absolute MIC RMP” value [8, 10] was 2 µg/mL, the “MIC (agent alone)” value [8] was >128 µg/mL and the Potentiation [8, 11] was 8-fold. For the same compound, the Potentiation [8, 12] was 8-fold.
For `CCCCCCCCCCCC(=O)N1CCC[C@H]1C(=O)N[C@@H](CCCNC(=N)N)C(=O)N1CCC[C@H]1C(=O)N[C@@H](CCCNC(=N)N)C(=O)N1CCC[C@H]1C(=O)N[C@@H](CCCNC(=N)N)C(=O)N1CCC[C@H]1C(N)=O` [Compound C12-PRP, CH3(CH2)10CO-PRPRPRP-NH2] (Lauroyl-PRPRPRP-NH2), the “MIC (agent alone)” value [1] was >128 µg/mL, the Potentiation [1, 11] was 4-fold and the Potentiation [1, 12] was 16-fold. For the same compound, the “MIC (agent alone)” value ([2]; 101243 (colistin-resistant, MDR/XDR)) was 128 µg/mL, the Potentiation [2, 13] was 4-fold and the Potentiation [2, 14] was 32-fold. The FIC index ([2]; P. aeruginosa 101243 (colistin-resistant), lipopeptide in combination with minocycline (MIN)) was 0.31, the FIC index ([2]; P. aeruginosa 101243 (colistin-resistant), lipopeptide in combination with rifampicin (RMP)) was 0.09 and the “MIC (agent alone)” value ([3]; 101885 (MDR/XDR)) was 64 µg/mL. The Potentiation [3, 15] was 4-fold, the Potentiation [3, 16] was 8-fold and the FIC index ([3]; P. aeruginosa 101885, lipopeptide in combination with minocycline (MIN)) was 0.37. The FIC index ([3]; P. aeruginosa 101885, lipopeptide in combination with rifampicin (RMP)) was 0.25, the “MIC (agent alone)” value [4] was >128 µg/mL and the Potentiation [4, 11] was 8-fold. The Potentiation [4, 12] was 8-fold, the “MIC (agent alone)” value ([5]; 260-97103 (MDR/XDR)) was 128 µg/mL and the Potentiation [5, 17] was 16-fold. The Potentiation [5, 18] was 8-fold, the FIC index ([5]; P. aeruginosa 260-97103, lipopeptide in combination with minocycline (MIN)) was 0.12 and the FIC index ([5]; P. aeruginosa 260-97103, lipopeptide in combination with rifampicin (RMP)) was 0.16. The “Absolute MIC MIN” value [6] was 16 µg/mL, the “MIC (agent alone)” value [6] was >128 µg/mL and the Potentiation [6, 11] was 4-fold. For the same compound, the Potentiation [6, 12] was “none”, the “MIC (agent alone)” value [7] was >128 µg/mL and the Potentiation [7, 11] was 16-fold. For the same compound, the Potentiation [7, 12] was 16-fold, the “MIC (agent alone)” value [8] was >128 µg/mL and the Potentiation [8, 11] was 4-fold. For the same compound, the Potentiation [8, 12] was 16-fold.
